A short description of the data set: Human HepG2 cell viability assay in 384 well format. The format is toxicity, cell-based. Also on record: dose 125 nL, time 70.5 hour; cytotoxicity at 70.5 h: concentration not given beside the values. Conditions: HepG2 cells, read-out: Inhibition.
With `O=C(Nc1ccccc1Oc1cccc(F)c1)C1CCS(=O)(=O)C1` (centres undefined), the cytotoxicity at 70.5 h is -5.38%. The figure for `CC(C)c1nc2n(n1)CC(NCC(=O)NCCC1=CCCCC1)CC2` (centres undefined) is -0.816%; for `COCCNc1c(-c2ccc(Cl)cc2)c(=O)c1=O` it is -7.26%; for `CN(Cc1noc(C2CC2)n1)C1CCN(CC(=O)N2CCOCC2)C1` (centres undefined) it is -3.02%. For `CC(C)c1n[nH]c(C2CN(C(=O)COc3ccc(F)cc3)CCO2)n1` (centres undefined) the value was -8.14%. Turning to `Cc1ccc(NC(=O)c2n[nH]c(-n3cnnc3)n2)cc1C`, the cytotoxicity at 70.5 h is 28.4%. As for `CCc1nccn1C1CCCN(C(=O)c2cnc3ccccc3n2)C1` (centres undefined), the cytotoxicity at 70.5 h is -2.77%. On to `O=C(Cc1cccs1)N1CC[C@H]2[C@@H]1CCC(=O)N2c1cccnc1`, for which the cytotoxicity at 70.5 h came out at 2.43%.

For `Cc1ccccc1CN1C[C@@H](CN(C)CCO)[C@@H](CO)C1`, the cytotoxicity at 70.5 h was -11.6%. For `CC(=O)NC(C)CC(=O)NCc1cccnc1Oc1ccccc1C` (centres undefined) the value was -6.45%; for `CC(c1ncc(C(C)(C)C)o1)N1CCN(c2ccncc2)CC1` (centres undefined), -2.28%; for `CS(=O)(=O)c1ccc(-c2cc(C3CC3)c(C#N)c(N)n2)cc1`, 0.0408%.

Consider `CCCOCC(=O)N1CCc2nc(NC)nc(C(=O)N3CCCC3)c2C1`, for which the cytotoxicity at 70.5 h was -4.23%. Take `N#CC1(NC(=O)Cc2cc(Cl)c3c(c2)OCCO3)CCC1`: the cytotoxicity at 70.5 h is -10.5%. The figure for `c1coc(CN2CCc3onc(Cn4cccc4)c3C2)c1` is -6.52%; for `CN(CCCC1CCCO1)C(=O)c1cccc(C#N)c1` (centres undefined) it is -5.92%. Consider `COc1c(C2CCCN2C(=O)c2ccc(C#N)cc2)c(C)nn1C` (centres undefined), for which the cytotoxicity at 70.5 h was -9.49%. The figure for `CC(C)c1nnc2ccc(N3CCC(C(=O)Nc4nccs4)CC3)nn12` is 10.7%; for `COc1cccc(CN(C)Cc2nc(C(C)C)no2)c1` it is 14.7%; for `O=C1NCCCCC1Sc1nnc(C2CC2)n1C1CC1` (centres undefined) it is -5.95%.

As to `CCc1ccc(C(=O)N2C[C@@H]3COC[C@@H](C(=O)NC)[C@@H]3C2)cc1`, the cytotoxicity at 70.5 h was -0.591%. As to `O=C(CCCNC(=O)Nc1ccc(F)cc1F)Nc1cn[nH]c1`, the cytotoxicity at 70.5 h was -5.08%. The figure for `CS(=O)(=O)N[C@@H]1COC[C@@H]2CN(Cc3ccco3)C[C@@H]21` is -16.3%; for `Cc1ccc(F)c(S(=O)(=O)NCc2cccc(CS(C)(=O)=O)c2)c1` it is -18%; for `CCNC(=O)N1CCC2(C1)c1ccccc1S(=O)(=O)N2CCC(C)C` (centres undefined) it is -12.9%. Take `COCCn1cnc2ccc(NC(=O)c3c(C)noc3C)cc2c1=O`: the cytotoxicity at 70.5 h was 30.3%. For `CCn1nc(C)c(CN(C)S(=O)(=O)c2cnn(C)c2)c1C`, the cytotoxicity at 70.5 h was -5.84%. As to `CCOc1ccc(CNCCCn2ccnc2)cc1OC`, the cytotoxicity at 70.5 h is -13.2%.

Turning to `COc1ccc(-c2noc([C@@H]3C[C@H](NC(=O)NC(C)C)CN3C)n2)cc1`, the cytotoxicity at 70.5 h is -0.383%.

Turning to `CCn1cc(S(=O)(=O)N2CCCC3(CC=CNC3=O)C2)c(C)n1` (centres undefined), the cytotoxicity at 70.5 h was -1.52%. The figure for `CN(C)CCOCC1CN(Cc2cccs2)Cc2ccnn2C1` (centres undefined) is -9.15%; for `Cc1ccc2cnn(CCC(=O)Nc3nc(C)c(C)s3)c2c1` it is 4.56%; for `CC[C@H]1CN(S(C)(=O)=O)CC[C@H]1CC(=O)NCCOC` it is 9.53%. For the molecule `Cc1cc(C(F)(F)F)c2c(C3CCCN(C(=O)C4CC4)C3)noc2n1` (centres undefined), the cytotoxicity at 70.5 h was -8.63%. The figure for `COC1CCN(c2ccc(F)cc2CN(C)C(=O)c2cc[nH]n2)CC1` is -13.3%. The figure for `CN(C)C(=O)C1CCC2(CCN(C(=O)Nc3cccc(F)c3)CC2)O1` (centres undefined) is -5.9%; for `CN1CCN(C(=O)C2SCCc3sccc32)CC1` (centres undefined) it is -6.9%; for `COc1ccc(-n2ccnc2-c2cnc(N(C)C)nc2)cc1OC` it is -6.47%. For `Cc1nc(CNC(C)c2ccc(S(=O)(=O)N(C)C)cc2)no1` (centres undefined) the value was -2.76%; for `Cc1nccn1C1CCCN(C(=O)c2ccc3cc[nH]c3c2)C1` (centres undefined), -1.7%.

As for `O=C(c1cnn2cc(CCO)cnc12)N1CCOC(C(F)(F)F)C1` (centres undefined), the cytotoxicity at 70.5 h is -13%.

Regarding `CC(C)CNC(=O)N1CCOC2(CCNCC2)C1`, the cytotoxicity at 70.5 h was -3.81%. For `COc1cccc2ccc(CN3CCN(c4cccnc4)CC3)nc12` the value was 7.51%. For `COCC(=O)N1CCC[C@]2(C(=O)N(C)C)CN(c3ccccn3)C[C@@H]2C1` the value was -5.67%; for `Cc1cc(C)n(CC2CCCN2C(=O)c2cccc3[nH]ncc23)n1` (centres undefined), -8.53%; for `CCC(C)NC(=O)CS(=O)(=O)Cc1nc(-c2cccs2)no1` (centres undefined), -8.46%. With `Fc1cccc(O[C@@H]2C[C@H]3CN(Cc4ccncc4)CCN3C2)c1`, the cytotoxicity at 70.5 h was -15.6%.

Take `FC(F)(F)CCN(Cc1ccon1)C1CCC1`: the cytotoxicity at 70.5 h was -7.34%. The figure for `O=C(c1ccc[nH]1)N1CCCC2(CCN(c3ccsc3)C2=O)C1` (centres undefined) is -11.6%; for `NCc1cnn(-c2ccccc2C(=O)NCc2ccccc2Cl)c1` it is -2.58%. The figure for `CCOCc1nc(N2CCOCC2)sc1C(=O)NCc1ccco1` is -6.85%; for `Cc1cc(C(=O)N2CCc3[nH]cnc3C2C(=O)O)c(-c2ccccc2)o1` (centres undefined) it is -3.87%; for `O=c1cnc2ccccc2n1CCCn1cccn1` it is 24.6%. For `COCc1cc(NCC(F)(F)F)n2nccc2n1` the value was -12.3%.

Take `Cc1noc(C)c1CN1CCCC1C(=O)OCc1ccccc1` (centres undefined): the cytotoxicity at 70.5 h is -10.7%. Take `CN1CCN(CC2CC2)C(=O)c2cnc(N3CC[C@@H](O)C3)nc21`: the cytotoxicity at 70.5 h was 27.1%.

Consider `CNc1nc2c(s1)C(c1cc(Cl)ccc1F)CC(=O)N2` (centres undefined), for which the cytotoxicity at 70.5 h turned out to be 57.6%. The figure for `O=C(CC1COCCN1C(=O)c1cscn1)c1ccccc1` (centres undefined) is -11.8%; for `NC(=O)CC1CCN(C(=O)c2cccn2Cc2cccs2)CC1` it is 3.87%. Take `CC(C)CNC(=O)c1cc(Br)c2c(c1)OCCO2`: the cytotoxicity at 70.5 h is -7.77%. The figure for `CCOCC1CN(CC2CC2)Cc2nn(CC3CC3)cc21` (centres undefined) is 6.53%; for `O=C(c1cc2ccccc2s1)N1CCC(C(=O)O)(n2cccn2)CC1` it is -4.38%.

As to `Cc1[nH]c2ccccc2c1-c1ccnc(N[C@H](CO)CC(C)C)n1`, the cytotoxicity at 70.5 h was -2.73%. The figure for `COc1cc2c(cc1CCC(=O)O)CCC2` is 17.1%; for `COC(=O)CNC(=O)c1scnc1C` it is -1.16%. For `Cc1ccc(CNC(c2ccccc2)c2nccn2C)cc1C` (centres undefined) the value was -7.63%; for `O=C(c1cccc(Cl)c1Cl)N1CCN(CC(O)Cn2cccn2)CC1` (centres undefined), -2.95%; for `CN(C)[C@@H]1CCN(C(=O)c2ccsc2)[C@H]1Cc1cccnc1`, 2.91%.

Turning to `Cc1csc(CN2CC[C@@](O)(C3CCOCC3)[C@H](C)C2)n1`, the cytotoxicity at 70.5 h is -5.11%. Regarding `Fc1ccc(Br)c(NCc2nnsc2Cl)c1`, the cytotoxicity at 70.5 h was -2.39%.

For the molecule `COc1ncccc1CNC(=O)c1cnc(C)cn1`, the cytotoxicity at 70.5 h is -3.16%. For `c1cnc(N2CCCC3(CCN(Cc4ccncc4)C3)C2)nc1` (centres undefined) the value was -13.2%; for `CN(c1cccnc1N1CCCC1)S(=O)(=O)c1cccnc1`, 3.33%. The figure for `CC(C)CN1C[C@H]2CCN(c3ncccn3)CC[C@H]2S1(=O)=O` is -12.5%; for `CN(Cc1nc(Cc2cccc(C(F)(F)F)c2)no1)C1CCOCC1` it is -5.63%. The figure for `O=C1NCC2(CCCN(C(=O)c3c[nH]nc3C3CCCCC3)C2)O1` (centres undefined) is -10.2%. For `O=C(Cc1c(F)cccc1Cl)NC1CCCCNC1=O` (centres undefined), the cytotoxicity at 70.5 h is -5.89%. The figure for `COCC1CC2(CCN(C(=O)c3oc4ccccc4c3C)CC2)CO1` (centres undefined) is 3.46%. For `FC(F)(F)c1ccc2[nH]c([C@H]3CCNC3)nc2c1` the value was -2.06%; for `Cc1ccc(CCC(=O)N2CCn3c(nnc3C(C)C)C2)cc1Cl`, 24.9%; for `Cc1ccc2nc(C3CCN(CC4CC4)CC3)nn2c1`, 32.6%.

As to `CCNc1ncc(C(=O)N2CCC(c3ccccc3C(=O)O)C2)cn1` (centres undefined), the cytotoxicity at 70.5 h turned out to be 2.76%. For `Cc1cccc2c1ccn2CCC(=O)O` the value was 3.02%; for `CCc1nn(-c2cc(Oc3cc(C)ccc3C)ncn2)c(N)c1C#N`, -1.76%. For `CC(C)(C)OC(=O)N1CCC(NC2CCS(=O)(=O)C2)CC1` (centres undefined) the value was -8.07%.

Consider `Cc1ccc(C2(CN(C)Cc3sccc3C)CCNCC2)nc1`, for which the cytotoxicity at 70.5 h is 10.6%.

For `Cc1ncc(C)c(N2CCCC(CO)(Cc3cccc(Cl)c3)C2)n1` (centres undefined), the cytotoxicity at 70.5 h amounted to 1.75%. The figure for `O=C(NCc1ccc2c(c1)OCO2)c1ccc(N2CCCCC2)nn1` is 12.8%. For `Cn1ccc(C(=O)NCc2ccc(N3CCCCC3)nc2)cc1=O` the value was 18.6%; for `COCC1CCN(C(=O)c2cc(O)nc(CC(C)C)c2)CC1`, -7.27%; for `CN1CCN(c2ncccn2)CC1C(N)=O` (centres undefined), 36.7%. The figure for `O=C(NCC1CCC2(CC1)OCCO2)c1ccncc1F` is -3.09%; for `O=C(NC1CC1)[C@H]1C[C@@H]2CCN(Cc3ccc4c(c3)OCO4)C[C@@H]2O1` it is -12.5%. Consider `Cc1occc1C(=O)N1C[C@H]2CCCC(OCc3cccnc3)[C@H]2C1` (some centres undefined), for which the cytotoxicity at 70.5 h is -4.67%. For `O=C1CCC2(CCN(CC[C@@H](O)c3ccccc3)CC2)CN1CC1CC1`, the cytotoxicity at 70.5 h is -5.97%. The figure for `Cc1ccc(C)c(NC(=O)Cn2cc(I)cn2)c1` is -13.2%.

With `COCc1nc(C(=O)NS(=O)(=O)c2ccc(F)c(F)c2)cs1`, the cytotoxicity at 70.5 h is -6.1%. `Cn1ncc2c(N3CCN(C(N)=O)CC3)nc(C3CCCC3)nc21`: the cytotoxicity at 70.5 h worked out at 16.3%.

For the molecule `CN1CCCC1CCn1ccnc1-c1nc2ccccc2[nH]1` (centres undefined), the cytotoxicity at 70.5 h is -0.748%.

Source of the values: ChEMBL document CHEMBL3507680, “University of Dundee, Gates Library screen for HepG2 cell viability”.
